Experiments:
Adenosine receptor A2a = Adenosine receptor A2a (Homo sapiens, UniProt P29274)
[1] = target: T1, Alpha-2B adrenergic receptor (Homo sapiens, UniProt P18089)
T1 sequence (P18089 whole entry): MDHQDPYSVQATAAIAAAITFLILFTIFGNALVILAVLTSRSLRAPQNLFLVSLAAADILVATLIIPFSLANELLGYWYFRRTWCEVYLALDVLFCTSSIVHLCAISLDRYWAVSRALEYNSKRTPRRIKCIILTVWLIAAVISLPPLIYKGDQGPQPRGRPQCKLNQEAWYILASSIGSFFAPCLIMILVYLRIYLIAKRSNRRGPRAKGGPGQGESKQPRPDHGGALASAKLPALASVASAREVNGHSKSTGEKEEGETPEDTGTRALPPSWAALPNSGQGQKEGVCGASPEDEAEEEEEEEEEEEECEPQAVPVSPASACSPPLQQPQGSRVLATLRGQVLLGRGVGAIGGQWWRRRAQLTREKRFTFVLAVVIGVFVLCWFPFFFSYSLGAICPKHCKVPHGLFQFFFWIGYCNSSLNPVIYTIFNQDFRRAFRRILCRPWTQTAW

[2] = target: Voltage-dependent L-type calcium channel subunit alpha-1C (Rattus norvegicus, UniProt P22002); format: functional
Voltage-dependent L-type calcium channel subunit alpha-1C, sequence (P22002 whole entry): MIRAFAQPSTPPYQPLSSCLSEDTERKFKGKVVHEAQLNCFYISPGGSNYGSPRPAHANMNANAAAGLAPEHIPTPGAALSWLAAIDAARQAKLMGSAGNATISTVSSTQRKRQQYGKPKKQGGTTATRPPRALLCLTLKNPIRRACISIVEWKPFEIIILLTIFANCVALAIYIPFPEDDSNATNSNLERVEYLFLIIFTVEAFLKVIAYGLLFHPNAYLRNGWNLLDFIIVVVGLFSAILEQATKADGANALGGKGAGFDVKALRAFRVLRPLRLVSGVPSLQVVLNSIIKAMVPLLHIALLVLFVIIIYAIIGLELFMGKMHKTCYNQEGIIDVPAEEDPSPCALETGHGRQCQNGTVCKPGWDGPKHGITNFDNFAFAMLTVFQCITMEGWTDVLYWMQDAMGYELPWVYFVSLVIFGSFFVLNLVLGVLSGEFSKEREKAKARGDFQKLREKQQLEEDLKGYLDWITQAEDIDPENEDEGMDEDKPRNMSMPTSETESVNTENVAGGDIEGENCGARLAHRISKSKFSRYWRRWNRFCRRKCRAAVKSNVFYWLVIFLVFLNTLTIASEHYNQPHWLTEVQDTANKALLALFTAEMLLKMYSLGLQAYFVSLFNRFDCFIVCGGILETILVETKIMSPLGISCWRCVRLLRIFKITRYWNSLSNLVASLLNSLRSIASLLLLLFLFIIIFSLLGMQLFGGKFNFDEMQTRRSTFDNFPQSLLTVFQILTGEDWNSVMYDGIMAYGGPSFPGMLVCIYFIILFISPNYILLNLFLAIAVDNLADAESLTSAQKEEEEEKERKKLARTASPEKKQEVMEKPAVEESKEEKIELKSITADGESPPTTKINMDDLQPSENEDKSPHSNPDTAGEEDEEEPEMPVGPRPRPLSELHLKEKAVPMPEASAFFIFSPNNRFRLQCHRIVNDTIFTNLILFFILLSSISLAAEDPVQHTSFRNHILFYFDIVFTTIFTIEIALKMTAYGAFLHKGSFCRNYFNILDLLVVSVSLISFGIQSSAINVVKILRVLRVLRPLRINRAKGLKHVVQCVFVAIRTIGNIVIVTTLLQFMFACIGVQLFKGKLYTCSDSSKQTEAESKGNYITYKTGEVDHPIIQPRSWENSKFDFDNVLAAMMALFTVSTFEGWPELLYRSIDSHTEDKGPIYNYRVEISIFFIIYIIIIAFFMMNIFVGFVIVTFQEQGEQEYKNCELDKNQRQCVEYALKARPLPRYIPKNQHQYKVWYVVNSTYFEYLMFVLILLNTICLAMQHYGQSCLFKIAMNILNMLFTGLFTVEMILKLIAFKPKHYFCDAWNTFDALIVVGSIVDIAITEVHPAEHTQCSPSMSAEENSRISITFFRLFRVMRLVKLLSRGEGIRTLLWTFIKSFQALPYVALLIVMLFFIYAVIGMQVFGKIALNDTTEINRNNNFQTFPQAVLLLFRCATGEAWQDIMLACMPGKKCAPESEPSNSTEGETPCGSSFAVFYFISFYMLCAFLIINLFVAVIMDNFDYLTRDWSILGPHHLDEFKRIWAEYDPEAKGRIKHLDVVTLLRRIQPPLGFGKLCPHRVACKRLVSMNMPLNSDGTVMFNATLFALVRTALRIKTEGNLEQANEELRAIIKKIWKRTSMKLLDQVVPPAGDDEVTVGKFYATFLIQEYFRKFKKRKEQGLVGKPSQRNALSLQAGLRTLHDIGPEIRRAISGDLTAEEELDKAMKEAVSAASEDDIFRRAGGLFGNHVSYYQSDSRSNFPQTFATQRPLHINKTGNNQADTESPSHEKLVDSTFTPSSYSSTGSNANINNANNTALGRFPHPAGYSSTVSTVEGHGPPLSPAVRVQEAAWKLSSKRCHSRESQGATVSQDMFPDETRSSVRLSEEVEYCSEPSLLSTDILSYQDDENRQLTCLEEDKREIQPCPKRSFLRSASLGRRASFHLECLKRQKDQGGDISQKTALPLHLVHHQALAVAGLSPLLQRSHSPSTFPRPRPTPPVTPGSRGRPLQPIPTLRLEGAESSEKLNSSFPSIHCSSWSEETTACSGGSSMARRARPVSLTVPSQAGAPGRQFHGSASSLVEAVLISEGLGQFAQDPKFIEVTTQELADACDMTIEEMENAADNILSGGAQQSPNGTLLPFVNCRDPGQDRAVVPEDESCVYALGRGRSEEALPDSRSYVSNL

[3] = target: T2, Muscarinic acetylcholine receptor M2 (Homo sapiens, UniProt P08172); format: functional, cell-based
T2 sequence (P08172 whole entry): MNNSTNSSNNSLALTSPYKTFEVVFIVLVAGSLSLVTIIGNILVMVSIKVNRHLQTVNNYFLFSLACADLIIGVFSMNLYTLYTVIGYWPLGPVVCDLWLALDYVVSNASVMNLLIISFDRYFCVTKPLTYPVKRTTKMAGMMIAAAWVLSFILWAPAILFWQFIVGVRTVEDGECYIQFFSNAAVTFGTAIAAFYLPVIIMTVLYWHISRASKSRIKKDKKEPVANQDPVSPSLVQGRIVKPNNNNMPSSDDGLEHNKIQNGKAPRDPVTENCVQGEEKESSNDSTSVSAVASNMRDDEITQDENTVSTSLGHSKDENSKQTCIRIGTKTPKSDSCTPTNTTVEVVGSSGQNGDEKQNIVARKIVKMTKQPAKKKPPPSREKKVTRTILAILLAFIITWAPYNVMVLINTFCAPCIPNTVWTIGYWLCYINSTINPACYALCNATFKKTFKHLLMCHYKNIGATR

[4] = target: T2, Muscarinic acetylcholine receptor M2; format: functional, cell-based; remark: listed apart in the source
[5] = target: Neuronal acetylcholine receptor subunit alpha-4 (Homo sapiens, UniProt P43681)
Neuronal acetylcholine receptor subunit alpha-4, sequence (P43681 whole entry): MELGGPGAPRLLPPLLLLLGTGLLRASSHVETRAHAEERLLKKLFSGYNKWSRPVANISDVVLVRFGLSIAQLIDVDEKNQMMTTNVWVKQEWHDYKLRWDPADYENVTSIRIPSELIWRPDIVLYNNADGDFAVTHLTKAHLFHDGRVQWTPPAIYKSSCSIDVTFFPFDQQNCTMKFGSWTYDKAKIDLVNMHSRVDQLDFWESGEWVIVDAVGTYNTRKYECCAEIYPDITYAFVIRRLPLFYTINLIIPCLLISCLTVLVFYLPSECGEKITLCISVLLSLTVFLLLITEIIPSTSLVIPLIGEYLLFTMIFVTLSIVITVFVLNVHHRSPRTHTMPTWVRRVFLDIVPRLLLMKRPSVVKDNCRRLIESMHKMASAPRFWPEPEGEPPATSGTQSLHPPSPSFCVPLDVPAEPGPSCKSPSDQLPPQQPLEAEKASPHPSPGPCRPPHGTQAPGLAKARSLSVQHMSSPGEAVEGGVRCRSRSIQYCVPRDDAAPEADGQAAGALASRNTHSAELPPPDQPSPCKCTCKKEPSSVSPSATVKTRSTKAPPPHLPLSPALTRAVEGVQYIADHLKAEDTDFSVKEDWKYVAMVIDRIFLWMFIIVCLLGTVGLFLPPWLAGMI

D(1A) dopamine receptor = D(1A) dopamine receptor (Homo sapiens, UniProt P21728); format: functional, cell-based
[6] = target: T3, Gamma-aminobutyric acid receptor subunit alpha-1 (Rattus norvegicus, UniProt P62813)
T3 sequence (P62813 whole entry): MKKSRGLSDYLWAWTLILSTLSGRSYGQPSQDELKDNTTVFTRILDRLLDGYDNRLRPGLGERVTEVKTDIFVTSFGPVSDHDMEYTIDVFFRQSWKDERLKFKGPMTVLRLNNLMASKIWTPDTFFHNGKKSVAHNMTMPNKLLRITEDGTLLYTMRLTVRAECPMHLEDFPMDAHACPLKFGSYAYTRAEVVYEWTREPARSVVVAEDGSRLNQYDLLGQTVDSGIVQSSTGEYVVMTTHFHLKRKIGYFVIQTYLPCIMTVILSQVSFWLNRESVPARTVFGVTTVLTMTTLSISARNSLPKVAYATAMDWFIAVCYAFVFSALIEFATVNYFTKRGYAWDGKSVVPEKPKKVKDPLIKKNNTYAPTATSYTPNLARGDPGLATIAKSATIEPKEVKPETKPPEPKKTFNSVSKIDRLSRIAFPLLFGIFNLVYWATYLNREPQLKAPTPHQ

[7] = target: T3, Gamma-aminobutyric acid receptor subunit alpha-1; format: functional
[8] = target: Glutamate receptor ionotropic, NMDA 1 (Rattus norvegicus, UniProt P35439)
Melanocortin receptor 3 = Melanocortin receptor 3 (Homo sapiens, UniProt P41968)
Melanocortin receptor 3, sequence (P41968 whole entry): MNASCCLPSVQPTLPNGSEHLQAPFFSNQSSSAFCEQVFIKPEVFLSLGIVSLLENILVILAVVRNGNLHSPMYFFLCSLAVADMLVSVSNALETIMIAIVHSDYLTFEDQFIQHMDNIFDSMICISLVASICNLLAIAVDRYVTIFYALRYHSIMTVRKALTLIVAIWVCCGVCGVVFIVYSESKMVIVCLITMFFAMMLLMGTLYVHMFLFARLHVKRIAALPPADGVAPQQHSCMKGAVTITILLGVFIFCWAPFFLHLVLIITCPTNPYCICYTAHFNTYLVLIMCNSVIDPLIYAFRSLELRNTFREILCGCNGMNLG

[9] = target: Delta-type opioid receptor (Homo sapiens, UniProt P41143)
[10] = target: Sodium-dependent noradrenaline transporter (Homo sapiens, UniProt P23975)
Sodium-dependent noradrenaline transporter, sequence (P23975 whole entry): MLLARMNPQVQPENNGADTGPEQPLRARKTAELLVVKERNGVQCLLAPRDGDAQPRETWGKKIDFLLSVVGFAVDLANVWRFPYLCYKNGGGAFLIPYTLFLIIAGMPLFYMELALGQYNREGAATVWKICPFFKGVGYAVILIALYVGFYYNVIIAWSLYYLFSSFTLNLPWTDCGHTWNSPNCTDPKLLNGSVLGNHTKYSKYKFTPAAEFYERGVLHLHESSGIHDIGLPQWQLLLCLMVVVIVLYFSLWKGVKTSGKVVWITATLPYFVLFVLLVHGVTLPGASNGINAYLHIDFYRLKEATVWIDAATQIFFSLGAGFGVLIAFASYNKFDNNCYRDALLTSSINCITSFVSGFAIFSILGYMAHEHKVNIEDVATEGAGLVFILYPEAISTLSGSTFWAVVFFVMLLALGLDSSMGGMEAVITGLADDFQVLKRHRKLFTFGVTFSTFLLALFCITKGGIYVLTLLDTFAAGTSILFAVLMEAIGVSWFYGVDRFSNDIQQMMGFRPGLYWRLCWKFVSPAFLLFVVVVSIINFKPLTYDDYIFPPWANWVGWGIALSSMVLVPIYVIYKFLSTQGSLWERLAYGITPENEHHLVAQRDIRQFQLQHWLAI

[11] = target: T4, Amine oxidase [flavin-containing] A (Homo sapiens, UniProt P21397); format: functional
T4 sequence (P21397 whole entry): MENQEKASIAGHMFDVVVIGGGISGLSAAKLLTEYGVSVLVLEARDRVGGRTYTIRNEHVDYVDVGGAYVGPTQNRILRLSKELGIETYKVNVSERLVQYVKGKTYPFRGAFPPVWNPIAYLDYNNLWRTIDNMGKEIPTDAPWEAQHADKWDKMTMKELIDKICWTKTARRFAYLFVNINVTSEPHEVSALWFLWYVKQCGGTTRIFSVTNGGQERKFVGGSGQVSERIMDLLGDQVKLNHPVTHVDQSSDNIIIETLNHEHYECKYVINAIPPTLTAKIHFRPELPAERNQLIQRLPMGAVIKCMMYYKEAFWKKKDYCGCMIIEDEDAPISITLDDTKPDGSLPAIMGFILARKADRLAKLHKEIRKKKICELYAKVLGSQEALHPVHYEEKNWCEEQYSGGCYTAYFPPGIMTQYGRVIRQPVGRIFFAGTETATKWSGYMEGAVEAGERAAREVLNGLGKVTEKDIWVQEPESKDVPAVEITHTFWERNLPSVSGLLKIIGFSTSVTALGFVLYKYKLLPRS

Histamine H3 receptor = Histamine H3 receptor (Homo sapiens, UniProt Q9Y5N1)
Histamine H3 receptor, sequence (Q9Y5N1 whole entry): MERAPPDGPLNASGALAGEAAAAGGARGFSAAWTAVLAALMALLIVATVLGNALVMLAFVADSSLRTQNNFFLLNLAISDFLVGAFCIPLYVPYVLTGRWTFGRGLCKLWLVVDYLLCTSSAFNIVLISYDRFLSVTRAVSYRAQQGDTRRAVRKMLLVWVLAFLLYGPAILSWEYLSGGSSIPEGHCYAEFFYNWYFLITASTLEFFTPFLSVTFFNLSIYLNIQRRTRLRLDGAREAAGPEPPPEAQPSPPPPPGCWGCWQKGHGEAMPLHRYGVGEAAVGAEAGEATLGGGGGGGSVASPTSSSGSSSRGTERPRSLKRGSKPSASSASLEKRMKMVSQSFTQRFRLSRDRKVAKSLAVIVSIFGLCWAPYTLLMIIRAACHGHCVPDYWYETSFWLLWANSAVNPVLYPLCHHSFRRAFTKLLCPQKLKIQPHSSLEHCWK
Also: assay procedure not described here.

Adenosine receptor A2a, sequence (P29274 whole entry): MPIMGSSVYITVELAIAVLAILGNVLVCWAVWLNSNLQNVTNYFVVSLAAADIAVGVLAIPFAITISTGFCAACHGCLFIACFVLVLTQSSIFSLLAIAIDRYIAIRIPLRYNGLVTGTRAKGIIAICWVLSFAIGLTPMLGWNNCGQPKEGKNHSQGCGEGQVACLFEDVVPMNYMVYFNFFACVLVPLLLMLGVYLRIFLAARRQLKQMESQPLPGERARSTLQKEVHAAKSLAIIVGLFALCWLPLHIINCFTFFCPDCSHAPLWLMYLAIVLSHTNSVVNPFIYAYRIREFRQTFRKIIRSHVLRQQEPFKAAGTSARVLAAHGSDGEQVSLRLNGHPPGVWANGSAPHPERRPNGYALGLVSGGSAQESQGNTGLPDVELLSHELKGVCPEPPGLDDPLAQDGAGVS

AC50 (Adenosine receptor A2a) [µM]	AC50 [1] [µM]	AC50 [2] [µM]	AC50 [3] [µM]	AC50 [4] [µM]	AC50 [5] [µM]	AC50 (D(1A) dopamine receptor) [µM]	AC50 [6] [µM]	AC50 [7] [µM]	AC50 [8] [µM]	AC50 (Melanocortin receptor 3) [µM]	AC50 [9] [µM]	AC50 [10] [µM]	AC50 [11] [µM]	AC50 (Histamine H3 receptor) [µM]	Compound
11	> 30	> 30	> 30	> 30	9.2	> 30	> 30	> 30	> 30	18	> 30	7.3	7.4	> 10	COc1ccc(-c2cc(=S)ss2)cc1 [ANETHOLTRITHION]
> 30	> 30	> 30	> 30	20	> 30	> 30	> 30	> 30	> 30	> 30	> 30	> 30	> 30	> 30	C[C@]12CCC(=O)C=C1C=C[C@@H]1[C@@H]2CC[C@@]2(C)[C@H]1CC[C@@]21CCC(=O)O1 [CANRENONE]
> 10	> 10	> 10	> 10	> 10	> 10	> 10	> 10	> 10	> 10	> 10	> 30	> 10	> 10	> 10	CN(C)CCC(O)(c1ccccc1)c1ccccc1Cl (stereo unspecified) [CHLOPHEDIANOL]
> 30	> 30	–	> 30	> 30	> 30	> 30	> 30	> 30	> 30	> 30	> 30	> 30	> 30	> 30	C[C@]12C=CC(=O)C=C1C(Cl)=C[C@@H]1[C@@H]2[C@@H](O)C[C@@]2(C)[C@H]1CC[C@]2(O)C(=O)CO [CLOPREDNOL]
> 30	> 30	> 30	13	> 10	> 30	> 30	> 30	> 30	> 30	> 30	> 30	> 30	> 30	> 30	C[C@]12CCC(=O)C=C1[C@@H]1C[C@@H]1[C@H]1[C@@H]3[C@@H]4C[C@@H]4[C@@]4(CCC(=O)O4)[C@@]3(C)CC[C@@H]12 [DROSPIRENONE]
> 30	> 30	> 30	> 30	> 30	> 30	> 30	> 30	> 30	> 30	> 30	> 30	> 30	–	> 30	CC(C)(Oc1ccc(Cl)cc1)C(=O)OCCOC(=O)c1cccnc1 [ETOFIBRATE]
> 30	–	> 10	> 10	> 10	> 10	> 10	> 10	> 10	> 10	> 30	> 30	> 30	> 10	> 10	C[C@]12C=CC(=O)C=C1CC[C@@H]1[C@@H]2[C@@H](O)C[C@@]2(C)[C@H]1CC[C@]2(O)C(=O)CO [PREDNISOLONE]
> 10	0.32	> 10	> 10	1.1	> 10	> 10	> 10	> 10	> 10	> 10	> 30	> 10	> 10	> 10	CCC(=O)c1ccc2c(c1)N(CC(C)N(C)C)c1ccccc1S2 (stereo unspecified) [PROPIOMAZINE]
> 10	> 10	> 10	> 10	> 10	> 10	> 10	> 10	> 10	> 10	> 10	> 30	> 10	> 10	> 10	CN(C)[C@@H]1C(O)=C(C(=O)NCN2CCCC2)C(=O)[C@@]2(O)C(O)=C3C(=O)c4c(O)cccc4[C@@](C)(O)[C@H]3C[C@@H]12 [ROLITETRACYCLINE]
> 30	–	> 30	> 30	> 30	> 30	> 30	> 30	> 30	> 30	> 30	> 30	–	> 30	> 30	CC1(C)O[C@@H]2C[C@H]3[C@@H]4CCC5=CC(=O)C=C[C@]5(C)[C@@]4(F)[C@@H](O)C[C@]3(C)[C@]2(C(=O)CO)O1 [TRIAMCINOLONE ACETONIDE]

Compound	AC50 (Adenosine receptor A2a) [µM]	AC50 [1] [µM]	AC50 [2] [µM]	AC50 [3] [µM]	AC50 [4] [µM]	AC50 [5] [µM]	AC50 (D(1A) dopamine receptor) [µM]	AC50 [6] [µM]	AC50 [7] [µM]	AC50 [8] [µM]	AC50 (Melanocortin receptor 3) [µM]	AC50 [9] [µM]	AC50 [10] [µM]	AC50 [11] [µM]	AC50 (Histamine H3 receptor) [µM]
COc1cccc2c1C(=O)c1c(O)c3c(c(O)c1C2=O)C[C@@](O)(C(=O)CO)C[C@@H]3O[C@H]1C[C@H](N)[C@H](O)[C@H](C)O1 [DOXORUBICIN]	> 30	–	> 10	> 10	> 10	> 30	> 30	> 10	> 10	> 10	> 30	> 30	> 30	> 30	> 30
CCn1c(=O)c2c(nc(/C=C/c3ccc(OC)c(OC)c3)n2C)n(CC)c1=O [ISTRADEFYLLINE]	–	–	–	> 30	> 30	> 30	–	–	–	–	> 30	–	> 30	> 30	–
Cc1cn(-c2cc(NC(=O)c3ccc(C)c(Nc4nccc(-c5cnccn5)n4)c3)cc(C(F)(F)F)c2)cn1 [RADOTINIB]	> 30	–	–	> 30	> 30	27	–	–	–	–	> 30	–	> 30	> 30	–
Cc1ccc(O)c([C@H](CCN(C(C)C)C(C)C)c2ccccc2)c1 [TOLTERODINE]	–	> 10	> 10	–	–	> 10	> 10	> 30	> 10	> 10	–	> 10	> 10	> 10	> 30
Oc1cc(Cl)ccc1Oc1ccc(Cl)cc1Cl [TRICLOSAN]	> 30	> 30	–	–	> 30	> 30	> 30	> 10	> 30	> 30	> 30	> 30	0.7	> 30	> 30

Reference: ChEMBL document CHEMBL5291721, “A preclinical secondary pharmacology resource illuminates target-adverse drug reaction associations of marketed drugs” (Nat Commun, 2023)
